{"source": "patent US20250302795A1", "about": "“SMALL MOLECULE COMPOUNDS WITH NEGATIVE REGULATORY EFFECTS ON Nrf2 SIGNALING [sequence] AND THEIR POTENTIAL APPLICATIONS” (Beijing Hebabiz Biotechnology Co., Inc., priority 2022, published 2025)", "type_in_all_cases": "in vivo, rat", "key": {"[1]": {"tested_on": "rats with nonalcoholic steatohepatitis induced by a high-fat diet and CCl4", "test": "Serum biochemical indices, high-fat diet and CCl4 model", "conditions": "end of tenth week of administration, positive control group", "procedure": "(§1) Starting from the seventh week, they received subcutaneous injections of a 30% CCl4 olive oil solution at a dosage of 0.2 ml/100 g behind their back twice per week for a total of four times. Once the model was successfully replicated, the corresponding drugs were administered orally (10 ml/kg) in each treatment group, and both the normal control group and the model group received equal volumes of a 0.5% CMC-Na solution once daily for ten consecutive weeks. Throughout the experimental period, the rats were provided with ad libitum access to food and water, while the animal chamber was maintained under controlled conditions of quietness, natural lighting, a temperature of 25±0.5° C., and a humidity level of 55±5%. The rats' body weights were measured once per week and recorded.\n(§2) At the end of the tenth week of administration, all rats underwent a 16-hour fasting period following their final administration and were intraperitoneally injected with a 20% ulinastatin solution (10 ml/kg) for anesthesia. Subsequently, blood samples were collected from the abdominal aorta and allowed to stand for one hour, and then centrifuged at 4° C. for fifteen minutes at a speed of 3000 r/min. Finally, the upper serum was stored at −80° C. Following the instructions provided with the biochemical index detection kit, levels of HDL-C, LDL-C, NEFA, AST, ALT, UA, TC, TG, PCIII, IV-C LN and HA in rat serum were determined.\nAccording to the kit instructions, the concentration of fasting plasma glucose (FPG) in serum was determined using colorimetry, while the concentration of fasting insulin (FINS) in serum was measured through radioimmunoassay."}, "[2]": {"test": "Body weight of rats, high-fat diet non-alcoholic steatohepatitis model", "conditions": "positive control group, in g (unit assumed)", "procedure": "(§3) The normal control group was fed a standard diet for twelve weeks while the other groups were fed a high-fat diet consisting of 88% basal diet+10% lard+2% cholesterol for twelve weeks. After establishing the model, the drug groups received their respective treatments at a dosage of 10 ml/kg while the normal and model groups received an equal volume of 0.5% CMC-Na solution. The rats were provided with ad libitum access to water and food, while the animal chamber was maintained under controlled conditions of quietness, natural lighting, a temperature of 25±0.5° C., and a humidity level of 55±5%. The rats' body weights were measured once per week and recorded.\nThe rats were weighed weekly to monitor the fluctuations in body weight within each experimental group."}, "[3]": {"tested_on": "rats with nonalcoholic steatohepatitis induced by a high-fat diet and CCl4", "test": "Four indices of serum hepatic fibrosis, high-fat diet and CCl4 model", "conditions": "positive control group", "procedure": "as §1, §2"}, "[4]": {"tested_on": "rats with nonalcoholic steatohepatitis induced by a high-fat diet and CCl4", "test": "Liver indices, non-alcoholic steatohepatitis model induced by high-fat diet and CCl4", "conditions": "positive control group", "procedure": "as §1, with “The normal control group were fed a standard diet while the other groups were exclusively fed a high-fat diet consisting of 88% basal diet +10% lard +2% cholesterol for the initial six weeks. Starting” for “Starting”\nAfter blood sampling from the abdominal aorta of rats, the liver tissue was isolated, rinsed with normal saline solution, dried using filter paper, weighed accurately, and subsequently calculated the Liver indices: Liver indices=wet liver weight/body weight×100%."}, "[5]": {"tested_on": "rats with non-alcoholic steatohepatitis induced by high-fat diet", "test": "Liver indices, non-alcoholic steatohepatitis model induced by high-fat diet", "conditions": "high-fat diet model; positive control group", "procedure": "as §3\n(3) Liver indices was determined by dividing the wet weight of the liver by the body weight of rats and multiplying by 100%, after liver tissue was isolated, washed with normal saline, dried using filter paper, and weighed following blood sampling from the abdominal aorta. (4) HE staining and oil red staining were performed on liver tissue samples obtained from the abdominal aorta of rats. The tissue was fixed in 10% neutral formalin, followed by embedding, slicing, dewaxing, staining, transparency treatment, and sealing using routine procedures. Microscopic examination was conducted to observe the pathological changes in rat liver tissues across different groups. Additionally, the NASH-CRN scoring system was employed to assess NAS scores. (5) Detection of Proteins Associated with Non-Alcoholic Steatohepatitis"}, "[6]": {"test": "Body weight of rats, high-fat diet + CCl4 non-alcoholic steatohepatitis model", "conditions": "positive control group, in g (unit assumed)", "procedure": "as §1, with “The normal control group were fed a standard diet while the other groups were exclusively fed a high-fat diet consisting of 88% basal diet +10% lard +2% cholesterol for the initial six weeks. Starting” for “Starting”\nThe weight changes of rats in each group were compared by conducting weekly weigh-ins after the experiment."}}, "data": [{"smiles": "CC[C@H]1[C@@H](O)[C@@H]2[C@H](CC[C@]3(C)[C@@H]([C@H](C)CCC(=O)O)CC[C@@H]23)[C@@]2(C)CC[C@@H](O)C[C@@H]12", "note": "[Ocaliva, Obercholic acid]", "values": [{"measurement": "HOMA-IR", "setting": "[1]; FPG x FINS/22.5", "result": 4.90}, {"measurement": "ALT", "setting": "[1]; serum", "result": 54.91, "unit": "U/L"}, {"measurement": "AST", "setting": "[1]; serum", "result": 62.32, "unit": "U/L"}, {"measurement": "HDL-C", "setting": "[1]; serum", "result": 1.30, "unit": "mmol/L"}, {"measurement": "LDL-C", "setting": "[1]; serum", "result": 1.29, "unit": "mmol/L"}, {"measurement": "NEFA", "setting": "[1]; serum", "result": 0.69, "unit": "mmol/L"}, {"measurement": "TC", "setting": "[1]; serum", "result": 1.76, "unit": "mmol/L"}, {"measurement": "TG", "setting": "[1]; serum", "result": 0.50, "unit": "mmol/L"}, {"measurement": "UA", "setting": "[1]; serum", "result": 106, "unit": "µmol/L"}, {"measurement": "body weight", "setting": "[2]; week 0 (pre-administration)", "result": "197.61 ± 4.50"}, {"measurement": "body weight", "setting": "[2]; week 1 (pre-administration)", "result": "257.27 ± 10.59"}, {"measurement": "body weight", "setting": "[2]; week 2 (pre-administration)", "result": "318.89 ± 11.61"}, {"measurement": "body weight", "setting": "[2]; week 3 (pre-administration)", "result": "362.58 ± 18.50"}, {"measurement": "body weight", "setting": "[2]; week 4 (pre-administration)", "result": "403.03 ± 23.75"}, {"measurement": "body weight", "setting": "[2]; week 5 (pre-administration)", "result": "439.43 ± 29.45"}, {"measurement": "body weight", "setting": "[2]; week 6 (pre-administration)", "result": "474.15 ± 35.23"}, {"measurement": "body weight", "setting": "[2]; week 7 (pre-administration)", "result": "492.08 ± 37.59"}, {"measurement": "body weight", "setting": "[2]; week 8 (pre-administration)", "result": "520.77 ± 41.63"}, {"measurement": "body weight", "setting": "[2]; week 9 (pre-administration)", "result": "548.10 ± 47.45"}, {"measurement": "body weight", "setting": "[2]; week 10 (pre-administration)", "result": "552.73 ± 51.34"}, {"measurement": "body weight", "setting": "[2]; week 11 (pre-administration)", "result": "552.52 ± 56.26"}, {"measurement": "body weight", "setting": "[2]; week 12 (pre-administration)", "result": "570.97 ± 53.36"}, {"measurement": "body weight", "setting": "[2]; week 13", "result": "552.25 ± 68.34"}, {"measurement": "body weight", "setting": "[2]; week 14", "result": "551.61 ± 63.47"}, {"measurement": "body weight", "setting": "[2]; week 15", "result": "559.94 ± 61.90"}, {"measurement": "body weight", "setting": "[2]; week 16", "result": "572.35 ± 60.86"}, {"measurement": "body weight", "setting": "[2]; week 17", "result": "573.51 ± 72.23"}, {"measurement": "body weight", "setting": "[2]; week 18", "result": "599.13 ± 55.71"}, {"measurement": "body weight", "setting": "[2]; week 19", "result": "615.97 ± 56.23"}, {"measurement": "body weight", "setting": "[2]; week 20", "result": "601.19 ± 60.01"}, {"measurement": "HA", "setting": "[3]", "result": "50.19 ± 17.94", "unit": "µg/L"}, {"measurement": "IV-C", "setting": "[3]", "result": "15.40 ± 7.08", "unit": "µg/L"}, {"measurement": "LN", "setting": "[3]", "result": "118.43 ± 39.88", "unit": "µg/L"}, {"measurement": "PC-III", "setting": "[3]", "result": "10.82 ± 1.64", "unit": "µg/L"}, {"measurement": "Liver Indices", "setting": "[4]", "result": "3.57 ± 0.31", "unit": "%"}, {"measurement": "Liver Indices", "setting": "[5]", "result": "2.95 ± 0.68", "unit": "%"}, {"measurement": "body weight", "setting": "[6]; week 1", "result": "192.12 ± 5.16"}, {"measurement": "body weight", "setting": "[6]; week 2", "result": "251.85 ± 11.78"}, {"measurement": "body weight", "setting": "[6]; week 3", "result": "316.12 ± 16.31"}, {"measurement": "body weight", "setting": "[6]; week 4", "result": "359.50 ± 15.40"}, {"measurement": "body weight", "setting": "[6]; week 5", "result": "389.95 ± 30.78"}, {"measurement": "body weight", "setting": "[6]; week 6", "result": "432.14 ± 23.79"}, {"measurement": "body weight", "setting": "[6]; week 7", "result": "462.23 ± 28.00"}, {"measurement": "body weight", "setting": "[6]; week 8", "result": "487.97 ± 30.51"}, {"measurement": "body weight", "setting": "[6]; week 9", "result": "487.63 ± 39.07"}, {"measurement": "body weight", "setting": "[6]; week 10", "result": "505.41 ± 41.23"}, {"measurement": "body weight", "setting": "[6]; week 11", "result": "493.66 ± 55.42"}, {"measurement": "body weight", "setting": "[6]; week 12", "result": "509.99 ± 49.38"}, {"measurement": "body weight", "setting": "[6]; week 13", "result": "532.39 ± 48.08"}, {"measurement": "body weight", "setting": "[6]; week 14", "result": "532.75 ± 52.06"}, {"measurement": "body weight", "setting": "[6]; week 15", "result": "498.86 ± 46.37"}, {"measurement": "body weight", "setting": "[6]; week 16", "result": "493.95 ± 43.25"}, {"measurement": "body weight", "setting": "[6]; week 17", "result": "515.43 ± 41.21"}, {"measurement": "body weight", "setting": "[6]; week 18", "result": "525.15 ± 42.35"}]}]}
